According to article PMC6544242, “Development and validation of a multiplex UHPLC-MS/MS method for the determination of the investigational antibiotic against multi-resistant tuberculosis macozinone (PBTZ169) and five active metabolites in human plasma” (PLoS ONE, 2019):

Tested on: not given
Settings: human, 1 h, 10 ng/mL

With O=C1CCCC(CN2CCN(c3nc(=O)c4cc(C(F)(F)F)cc([N+](=O)[O-])c4s3)CC2)C1 (stereo not shown) [Met 3-oxo] as the molecule, how does the “% from t0” value read?
The value was -1%.

Same assay, conditions: human, 1 h, 20 ng/mL

Which “% from t0” value does the source give for O=C1CCCC(CN2CCN(c3nc(=O)c4cc(C(F)(F)F)cc([N+](=O)[O-])c4s3)CC2)C1 (stereo not shown) [Met 3-oxo] here?
The value was -6%.

Same assay, conditions: human, 1 h, 50 ng/mL

For O=C1CCCC(CN2CCN(c3nc(=O)c4cc(C(F)(F)F)cc([N+](=O)[O-])c4s3)CC2)C1 (stereo not shown) [Met 3-oxo], which “% from t0” value is on record?
The value was -22%.

Same assay, conditions: human, 1 h, 100 ng/mL

Which “% from t0” value does the source give for O=C1CCCC(CN2CCN(c3nc(=O)c4cc(C(F)(F)F)cc([N+](=O)[O-])c4s3)CC2)C1 (stereo not shown) [Met 3-oxo] here?
The value was 0%.

Same assay, conditions: human, 1 h, 200 ng/mL

For O=C1CCCC(CN2CCN(c3nc(=O)c4cc(C(F)(F)F)cc([N+](=O)[O-])c4s3)CC2)C1 (stereo not shown) [Met 3-oxo], which “% from t0” value is on record?
Its value is -9%.

Same assay, conditions: human, 1 h, 500 ng/mL

Which “% from t0” value does the source give for O=C1CCCC(CN2CCN(c3nc(=O)c4cc(C(F)(F)F)cc([N+](=O)[O-])c4s3)CC2)C1 (stereo not shown) [Met 3-oxo] here?
Its value is -22%.

Same assay, conditions: human, 2 h, 10 ng/mL

For O=C1CCCC(CN2CCN(c3nc(=O)c4cc(C(F)(F)F)cc([N+](=O)[O-])c4s3)CC2)C1 (stereo not shown) [Met 3-oxo], which “% from t0” value is on record?
The value was -5%.

Same assay, conditions: human, 2 h, 20 ng/mL

For O=C1CCCC(CN2CCN(c3nc(=O)c4cc(C(F)(F)F)cc([N+](=O)[O-])c4s3)CC2)C1 (stereo not shown) [Met 3-oxo], which “% from t0” value is on record?
Its value is -9%.

Same assay, conditions: human, 2 h, 50 ng/mL

With O=C1CCCC(CN2CCN(c3nc(=O)c4cc(C(F)(F)F)cc([N+](=O)[O-])c4s3)CC2)C1 (stereo not shown) [Met 3-oxo] as the molecule, how does the “% from t0” value read?
Its value is -32%.

Same assay, conditions: human, 2 h, 100 ng/mL

With O=C1CCCC(CN2CCN(c3nc(=O)c4cc(C(F)(F)F)cc([N+](=O)[O-])c4s3)CC2)C1 (stereo not shown) [Met 3-oxo] as the molecule, how does the “% from t0” value read?
Its value is -5%.

Same assay, conditions: human, 2 h, 200 ng/mL

For O=C1CCCC(CN2CCN(c3nc(=O)c4cc(C(F)(F)F)cc([N+](=O)[O-])c4s3)CC2)C1 (stereo not shown) [Met 3-oxo], which “% from t0” value is on record?
Its value is -11%.

Same assay, conditions: human, 2 h, 500 ng/mL

With O=C1CCCC(CN2CCN(c3nc(=O)c4cc(C(F)(F)F)cc([N+](=O)[O-])c4s3)CC2)C1 (stereo not shown) [Met 3-oxo] as the molecule, how does the “% from t0” value read?
Its value is -31%.

Same assay, conditions: human, 4 h

For O=C1CCCC(CN2CCN(c3nc(=O)c4cc(C(F)(F)F)cc([N+](=O)[O-])c4s3)CC2)C1 (stereo not shown) [Met 3-oxo], which “concentration deviation in whole blood” value is on record?
The value was “exceeded the accepted -15% limit”.

Same assay, conditions: human, 4 h, 10 ng/mL

For O=C1CCCC(CN2CCN(c3nc(=O)c4cc(C(F)(F)F)cc([N+](=O)[O-])c4s3)CC2)C1 (stereo not shown) [Met 3-oxo], which “% from t0” value is on record?
Its value is -9%.

Same assay, conditions: human, 4 h, 20 ng/mL

Which “% from t0” value does the source give for O=C1CCCC(CN2CCN(c3nc(=O)c4cc(C(F)(F)F)cc([N+](=O)[O-])c4s3)CC2)C1 (stereo not shown) [Met 3-oxo] here?
The value was -15%.

Same assay, conditions: human, 4 h, 50 ng/mL

For O=C1CCCC(CN2CCN(c3nc(=O)c4cc(C(F)(F)F)cc([N+](=O)[O-])c4s3)CC2)C1 (stereo not shown) [Met 3-oxo], which “% from t0” value is on record?
The value was -51%.

Same assay, conditions: human, 4 h, 100 ng/mL

With O=C1CCCC(CN2CCN(c3nc(=O)c4cc(C(F)(F)F)cc([N+](=O)[O-])c4s3)CC2)C1 (stereo not shown) [Met 3-oxo] as the molecule, how does the “% from t0” value read?
The value was -10%.

Same assay, conditions: human, 4 h, 200 ng/mL

With O=C1CCCC(CN2CCN(c3nc(=O)c4cc(C(F)(F)F)cc([N+](=O)[O-])c4s3)CC2)C1 (stereo not shown) [Met 3-oxo] as the molecule, how does the “% from t0” value read?
Its value is -18%.

Same assay, conditions: human, 4 h, 500 ng/mL

With O=C1CCCC(CN2CCN(c3nc(=O)c4cc(C(F)(F)F)cc([N+](=O)[O-])c4s3)CC2)C1 (stereo not shown) [Met 3-oxo] as the molecule, how does the “% from t0” value read?
The value was -50%.

Tested on: Mycobacterium tuberculosis
Settings: not measured in this paper; cited from earlier work

With O=C1CCCC(CN2CCN(c3nc(=O)c4cc(C(F)(F)F)cc([N+](=O)[O-])c4s3)CC2)C1 (stereo not shown) [Met 3-oxo] as the molecule, how does the “anti-TB activity in vitro (active / inactive)” value read?
The value was “active”.

Tested on: not given
Settings: human, 6 h, 0.2 ng/mL

With O=C1CCCC(CN2CCN(c3nc(=O)c4cc(C(F)(F)F)cc([N+](=O)[O-])c4s3)CC2)C1 (stereo not shown) [Met 3-oxo] as the molecule, how does the “% from freshly processed samples (n=2)” value read?
Its value is 6%.

Same assay, conditions: human, 6 h, 0.5 ng/mL

Which “% from freshly processed samples (n=2)” value does the source give for O=C1CCCC(CN2CCN(c3nc(=O)c4cc(C(F)(F)F)cc([N+](=O)[O-])c4s3)CC2)C1 (stereo not shown) [Met 3-oxo] here?
The value was -14%.

Same assay, conditions: human, 6 h, 1 ng/mL

For O=C1CCCC(CN2CCN(c3nc(=O)c4cc(C(F)(F)F)cc([N+](=O)[O-])c4s3)CC2)C1 (stereo not shown) [Met 3-oxo], which “% from freshly processed samples (n=2)” value is on record?
The value was -2%.

Same assay, conditions: human, 6 h, 2 ng/mL

For O=C1CCCC(CN2CCN(c3nc(=O)c4cc(C(F)(F)F)cc([N+](=O)[O-])c4s3)CC2)C1 (stereo not shown) [Met 3-oxo], which “% from freshly prepared samples” value is on record?
Its value is -4%.

And the “% from freshly processed samples (n=2)” value?
The value was -10%.

Same assay, conditions: human, 6 h, 50 ng/mL

With O=C1CCCC(CN2CCN(c3nc(=O)c4cc(C(F)(F)F)cc([N+](=O)[O-])c4s3)CC2)C1 (stereo not shown) [Met 3-oxo] as the molecule, how does the “% from freshly processed samples (n=2)” value read?
The value was -6%.

Same assay, conditions: human, 6 h, 150 ng/mL

For O=C1CCCC(CN2CCN(c3nc(=O)c4cc(C(F)(F)F)cc([N+](=O)[O-])c4s3)CC2)C1 (stereo not shown) [Met 3-oxo], which “% from freshly prepared samples” value is on record?
Its value is -4%.

Same assay, conditions: human, 6 h, 500 ng/mL

For O=C1CCCC(CN2CCN(c3nc(=O)c4cc(C(F)(F)F)cc([N+](=O)[O-])c4s3)CC2)C1 (stereo not shown) [Met 3-oxo], which “% from freshly processed samples (n=2)” value is on record?
Its value is -4%.

Same assay, conditions: human, 6 h, 1000 ng/mL

With O=C1CCCC(CN2CCN(c3nc(=O)c4cc(C(F)(F)F)cc([N+](=O)[O-])c4s3)CC2)C1 (stereo not shown) [Met 3-oxo] as the molecule, how does the “% from freshly processed samples (n=2)” value read?
Its value is 0%.

Same assay, conditions: human, 6 h, 1500 ng/mL

Which “% from freshly prepared samples” value does the source give for O=C1CCCC(CN2CCN(c3nc(=O)c4cc(C(F)(F)F)cc([N+](=O)[O-])c4s3)CC2)C1 (stereo not shown) [Met 3-oxo] here?
Its value is -4%.

Same assay, conditions: human, 6 h, 2000 ng/mL

For O=C1CCCC(CN2CCN(c3nc(=O)c4cc(C(F)(F)F)cc([N+](=O)[O-])c4s3)CC2)C1 (stereo not shown) [Met 3-oxo], which “% from freshly processed samples (n=2)” value is on record?
The value was -1%.

Tested on: not given
Settings: processed extract sample, 4°C, 24h, level H (QC 1500 ng/mL)

With O=C1CCCC(CN2CCN(c3nc(=O)c4cc(C(F)(F)F)cc([N+](=O)[O-])c4s3)CC2)C1 (stereo not shown) [Met 3-oxo] as the molecule, how does the “% from t0” value read?
Its value is -2%.

Same assay, conditions: processed extract sample, 4°C, 24h, level L (QC 2 ng/mL)

Which “% from t0” value does the source give for O=C1CCCC(CN2CCN(c3nc(=O)c4cc(C(F)(F)F)cc([N+](=O)[O-])c4s3)CC2)C1 (stereo not shown) [Met 3-oxo] here?
Its value is -14%.

Same assay, conditions: processed extract sample, 4°C, 24h, level M (QC 150 ng/mL)

Which “% from t0” value does the source give for O=C1CCCC(CN2CCN(c3nc(=O)c4cc(C(F)(F)F)cc([N+](=O)[O-])c4s3)CC2)C1 (stereo not shown) [Met 3-oxo] here?
Its value is -9%.

Same assay, conditions: processed extract sample, RT, 24h, level H (QC 1500 ng/mL)

For O=C1CCCC(CN2CCN(c3nc(=O)c4cc(C(F)(F)F)cc([N+](=O)[O-])c4s3)CC2)C1 (stereo not shown) [Met 3-oxo], which “% from t0” value is on record?
The value was -10%.

Same assay, conditions: processed extract sample, RT, 24h, level L (QC 2 ng/mL)

Which “% from t0” value does the source give for O=C1CCCC(CN2CCN(c3nc(=O)c4cc(C(F)(F)F)cc([N+](=O)[O-])c4s3)CC2)C1 (stereo not shown) [Met 3-oxo] here?
The value was -58%.

Same assay, conditions: processed extract sample, RT, 24h, level M (QC 150 ng/mL)

With O=C1CCCC(CN2CCN(c3nc(=O)c4cc(C(F)(F)F)cc([N+](=O)[O-])c4s3)CC2)C1 (stereo not shown) [Met 3-oxo] as the molecule, how does the “% from t0” value read?
Its value is -37%.
